Results from patent US20100179093A1, “Neoropeptide-2-Receptor (Y-2R) Agonists” (priority 2008, published 2010).

How the values were obtained:
Format in all cases: cell-based
[1] = molecular target: T1, Y1R (Homo sapiens, UniProt P25929); assay: CaFlux Assay (FLIPR), Y1R
T1 sequence (P25929 1-384): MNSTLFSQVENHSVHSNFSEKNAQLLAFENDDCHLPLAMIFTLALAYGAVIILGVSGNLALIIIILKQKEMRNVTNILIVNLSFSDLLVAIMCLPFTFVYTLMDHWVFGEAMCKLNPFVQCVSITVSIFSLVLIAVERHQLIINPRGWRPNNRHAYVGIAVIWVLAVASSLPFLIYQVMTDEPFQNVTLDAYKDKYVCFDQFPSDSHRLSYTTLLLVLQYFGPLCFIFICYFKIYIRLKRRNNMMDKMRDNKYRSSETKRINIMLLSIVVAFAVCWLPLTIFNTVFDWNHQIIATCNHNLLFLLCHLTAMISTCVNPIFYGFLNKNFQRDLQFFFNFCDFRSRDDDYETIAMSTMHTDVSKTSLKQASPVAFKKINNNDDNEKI

[2] = molecular target: Y4R (Homo sapiens, UniProt P50391); assay: CaFlux Assay (FLIPR), Y4R
Sequence of Y4R (P50391 whole entry): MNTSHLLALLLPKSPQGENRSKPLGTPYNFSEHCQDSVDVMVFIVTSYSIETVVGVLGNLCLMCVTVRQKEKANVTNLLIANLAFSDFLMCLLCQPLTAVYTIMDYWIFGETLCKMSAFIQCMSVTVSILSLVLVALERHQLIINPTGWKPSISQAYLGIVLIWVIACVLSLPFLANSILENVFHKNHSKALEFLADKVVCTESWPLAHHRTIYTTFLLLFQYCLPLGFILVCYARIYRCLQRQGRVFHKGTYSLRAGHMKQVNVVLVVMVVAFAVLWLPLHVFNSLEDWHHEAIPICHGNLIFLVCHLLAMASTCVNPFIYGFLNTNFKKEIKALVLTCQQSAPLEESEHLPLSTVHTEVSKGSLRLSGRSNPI

[3] = molecular target: T2, Y5R (Homo sapiens, UniProt Q15761); assay: CaFlux Assay (FLIPR), Y5R; settings: for Emax: read-out: Y5R FLIPR, percentage in parentheses under the EC50;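 on Emax: percent of the maximal response of the positive control agonist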
T2 sequence (Q15761 1-445): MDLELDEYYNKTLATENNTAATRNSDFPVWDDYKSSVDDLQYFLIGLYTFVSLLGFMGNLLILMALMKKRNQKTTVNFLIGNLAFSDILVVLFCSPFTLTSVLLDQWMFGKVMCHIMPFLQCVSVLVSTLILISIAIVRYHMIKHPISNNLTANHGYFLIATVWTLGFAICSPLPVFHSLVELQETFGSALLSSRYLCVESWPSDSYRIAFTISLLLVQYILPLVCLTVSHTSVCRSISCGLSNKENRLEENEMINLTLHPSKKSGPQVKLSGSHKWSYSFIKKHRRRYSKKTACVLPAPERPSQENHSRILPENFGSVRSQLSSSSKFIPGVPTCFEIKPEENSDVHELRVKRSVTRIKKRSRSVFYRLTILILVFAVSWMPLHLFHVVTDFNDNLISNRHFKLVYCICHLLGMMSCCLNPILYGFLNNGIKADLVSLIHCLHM

[4] = molecular target: T3, hNPY2R (Homo sapiens, UniProt P49146); assay: cAMP Agonist Assay, HEK293/hNPY2R cells; design: expressed in transfected cells; host or cells: HEK293/hNPY2R (G418 selection)
T3 sequence (P49146 1-381): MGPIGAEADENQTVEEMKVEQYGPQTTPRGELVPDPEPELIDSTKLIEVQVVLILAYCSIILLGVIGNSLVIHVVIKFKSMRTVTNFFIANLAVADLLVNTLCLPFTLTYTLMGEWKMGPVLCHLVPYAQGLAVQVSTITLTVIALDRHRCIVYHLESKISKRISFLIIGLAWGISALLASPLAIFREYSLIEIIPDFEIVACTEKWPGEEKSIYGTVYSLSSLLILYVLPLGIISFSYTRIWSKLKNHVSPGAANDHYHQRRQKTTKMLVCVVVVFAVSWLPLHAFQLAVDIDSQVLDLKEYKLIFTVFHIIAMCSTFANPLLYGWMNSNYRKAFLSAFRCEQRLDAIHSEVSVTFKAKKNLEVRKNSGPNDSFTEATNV

[5] = molecular target: T3, hNPY2R; assay: CaFlux Assay (FLIPR), Y2R; design: expressed in transfected cells; host or cells: HEK-293 stably expressing G protein chimera Gaqi9
Description: Hek-293 cells were stably transfected with the G protein chimera Gaqi9 and the hygromycin-B resistance gene were further transfected with the human NPY2 receptor and G418 antibiotic selection. Following selection in both hygromycin-B and G418, individual clones were assayed for their response to PYY. The transfected cells were cultured in DMEM medium supplemented with 10% fetal bovine serum, 50 μg/mL hygromycin-B 2 mM glutamine, 100 U/mL penicillin, 100 μg/mL streptomycin and 250 μg/mL G418. Cells are harvested with trypsin-EDTA and counted using ViaCount reagent. The cell suspension volume is adjusted to 4.8×10^5 cells/mL with complete growth media. Aliquots of 25 μL are dispensed into 384 well Poly-D Lysine coated black/clear microplates (Falcon) and the microplates were placed in a 37° C. CO2 incubator overnight. Loading Buffer (Calcium-3 Assay Kit, Molecular Devices) was prepared by dissolving the contents of one vial (Express Kit) into 1000 mL Hank's Balanced Salt Solution containing 20 mM HEPES and 5 mM probenecid. Aliquots of 25 μL of diluted dye were dispensed into the cell plates and the plates are then incubated for 1 hour at 37° C. During the incubation, test compounds were prepared at 3.5× the desired concentration in HBSS (20 mM HEPES)/0.05% BSA/1% DMSO and transferred to a 384 well plate for use on FLIPR. After incubation, both the cell and compound plates were brought to the FLIPR and 20 μL of the diluted compounds were transferred to the cell plates by the FLIPR. During the assay, fluorescence readings were taken simultaneously from all 384 wells of the cell plate every 1.5 seconds. Five readings were taken to establish a stable baseline, and then 20 μL of sample was rapidly (30 μL/sec) and simultaneously added to each well of the cell plate. The fluorescence was continuously monitored before, during and after sample addition for a total elapsed time of 100 seconds. Responses (increase in peak fluorescence) in each well following addition were determined. The initial fluorescence reading from each well, prior to ligand stimulation, was used as a zero baseline value for the data from that well. The responses are expressed as % of maximal response of the positive control.

| SMILES | EC50 [1] [nM] | EC50 [2] [nM] | EC50 [3] [nM] | EC50 [4] [nM] | EC50 [5] [nM] | Emax [3] [%] |
| --- | --- | --- | --- | --- | --- | --- |
| CCCCCCCCCCCCCCCC(=O)NCCCCCC(=O)N[C@H](C(=O)N[C@@H](CCCCN)C(=O)N1CCN(c2ccc3ncn(CC(=O)N[C@@H](CCCNC(=N)N)C(=O)N[C@@H](Cc4c[nH]cn4)C(=O)N[C@@H](Cc4ccc(O)cc4)C(=O)N[C@@H](CC(C)C)C(=O)N[C@@H](CC(N)=O)C(=O)N[C@@H](Cc4c[nH]c5ccccc45)C(=O)N[C@H](C(=O)N[C@H](C(=O)N[C@@H](CCCNC(=N)N)C(=O)N[C@@H](CCC(N)=O)C(=O)N(C)[C@@H](CCCNC(=N)N)C(=O)N[C@@H](Cc4ccc(O)cc4)C(N)=O)[C@@H](C)O)C(C)C)c(=O)c3c2)CC1)[C@@H](C)CC [Example 16] | > 5000 | 13700 | 544 | 0.23 | 0.18 | – |
| CCCCCCCCCCCCCCCC(=O)NCCOCCOCCOCCC(=O)NCCCC[C@H](NC(=O)[C@@H](N)[C@@H](C)CC)C(=O)N1CCN(c2ccc3ncn(CC(=O)N[C@@H](CCCNC(=N)N)C(=O)N[C@@H](Cc4c[nH]cn4)C(=O)N[C@@H](Cc4ccc(O)cc4)C(=O)N[C@@H](CC(C)C)C(=O)N[C@@H](CC(N)=O)C(=O)N[C@@H](Cc4c[nH]c5ccccc45)C(=O)N[C@H](C(=O)N[C@H](C(=O)N[C@@H](CCCNC(=N)N)C(=O)N[C@@H](CCC(N)=O)C(=O)N(C)[C@@H](CCCNC(=N)N)C(=O)N[C@@H](Cc4ccc(O)cc4)C(N)=O)[C@@H](C)O)C(C)C)c(=O)c3c2)CC1 [Example 34] | > 5000 | > 5000 | 2340 | 0.1 | 0.003 | 80 |
| CCCCCCCCCCCCCCCC(=O)N[C@@H](CCC(=O)O)C(=O)NCCCC[C@H](NC(=O)[C@@H](N)[C@@H](C)CC)C(=O)N1CCN(c2ccc3ncn(CC(=O)N[C@@H](CCCNC(=N)N)C(=O)N[C@@H](Cc4c[nH]cn4)C(=O)N[C@@H](Cc4ccc(O)cc4)C(=O)N[C@@H](CC(C)C)C(=O)N[C@@H](CC(N)=O)C(=O)N[C@@H](Cc4c[nH]c5ccccc45)C(=O)N[C@H](C(=O)N[C@H](C(=O)N[C@@H](CCCNC(=N)N)C(=O)N[C@@H](CCC(N)=O)C(=O)N(C)[C@@H](CCCNC(=N)N)C(=O)N[C@@H](Cc4ccc(O)cc4)C(N)=O)[C@@H](C)O)C(C)C)c(=O)c3c2)CC1 [Example 21] | > 5000 | > 5000 | 4180 | 1 | 0.43 | – |
| CCCCCCCCCCCCCCCC(=O)N[C@@H](CCC(=O)N[C@@H](CCC(=O)NCCCC[C@H](NC(=O)[C@@H](NC(=O)[C@@H]1CCC(=O)N1)[C@@H](C)CC)C(=O)N1CCN(c2ccc3ncn(CC(=O)N[C@@H](CCCNC(=N)N)C(=O)N[C@@H](Cc4c[nH]cn4)C(=O)N[C@@H](Cc4ccc(O)cc4)C(=O)N[C@@H](CC(C)C)C(=O)N[C@@H](CC(N)=O)C(=O)N[C@@H](Cc4c[nH]c5ccccc45)C(=O)N[C@H](C(=O)N[C@H](C(=O)N[C@@H](CCCNC(=N)N)C(=O)N[C@@H](CCC(N)=O)C(=O)N(C)[C@@H](CCCNC(=N)N)C(=O)N[C@@H](Cc4ccc(O)cc4)C(N)=O)[C@@H](C)O)C(C)C)c(=O)c3c2)CC1)C(=O)O)C(=O)O [Example 28] | > 5000 | > 5000 | 2060 | 0.21 | 0.176 | – |
| CCCCCCCCCCCCCCCC(=O)N[C@H](C(=O)N[C@H](C(=O)NCCCC[C@H](NC(=O)[C@@H](N)[C@@H](C)CC)C(=O)N1CCN(c2ccc3ncn(CC(=O)N[C@@H](CCCNC(=N)N)C(=O)N[C@@H](Cc4c[nH]cn4)C(=O)N[C@@H](Cc4ccc(O)cc4)C(=O)N[C@@H](CC(C)C)C(=O)N[C@@H](CC(N)=O)C(=O)N[C@@H](Cc4c[nH]c5ccccc45)C(=O)N[C@H](C(=O)N[C@H](C(=O)N[C@@H](CCCNC(=N)N)C(=O)N[C@@H](CCC(N)=O)C(=O)N(C)[C@@H](CCCNC(=N)N)C(=O)N[C@@H](Cc4ccc(O)cc4)C(N)=O)[C@@H](C)O)C(C)C)c(=O)c3c2)CC1)[C@@H](C)O)[C@@H](C)O [Example 42] | > 5000 | > 5000 | 193 | 0.14 | 0.018 | 46 |
| CCCCCCCCCCCCCCCC(=O)N[C@@H](CCC(=O)NCCCC[C@H](NC(=O)[C@@H](N)[C@@H](C)CC)C(=O)N1CCN(c2ccc3ncn(CC(=O)N[C@@H](CCCNC(=N)N)C(=O)N[C@@H](Cc4c[nH]cn4)C(=O)N[C@@H](Cc4ccc(O)cc4)C(=O)N[C@@H](CC(C)C)C(=O)N[C@@H](CC(N)=O)C(=O)N[C@@H](Cc4c[nH]c5ccccc45)C(=O)N[C@H](C(=O)N[C@H](C(=O)N[C@@H](CCCNC(=N)N)C(=O)N[C@@H](CCC(N)=O)C(=O)N(C)[C@@H](CCCNC(=N)N)C(=O)N[C@@H](Cc4ccc(O)cc4)C(N)=O)[C@@H](C)O)C(C)C)c(=O)c3c2)CC1)C(=O)O [Example 24] | > 5000 | > 5000 | 168 | 0.21 | 0.039 | 70 |
| CCCCCCCCCCCCCCCC(=O)N[C@H](C(=O)N[C@@H](CCCCN)C(=O)N1CCN(c2ccc3ncn(CC(=O)N[C@@H](CCCNC(=N)N)C(=O)N[C@@H](Cc4c[nH]cn4)C(=O)N[C@@H](Cc4ccc(O)cc4)C(=O)N[C@@H](CC(C)C)C(=O)N[C@@H](CC(N)=O)C(=O)N[C@@H](Cc4c[nH]c5ccccc45)C(=O)N[C@H](C(=O)N[C@H](C(=O)N[C@@H](CCCNC(=N)N)C(=O)N[C@@H](CCC(N)=O)C(=O)N(C)[C@@H](CCCNC(=N)N)C(=O)N[C@@H](Cc4ccc(O)cc4)C(N)=O)[C@@H](C)O)C(C)C)c(=O)c3c2)CC1)[C@@H](C)CC [Example 15] | > 5000 | 1360 | > 5000 | 0.97 | 1.03 | – |
| CCCCCCCCCCCCCCCCCCCC(=O)NCCOCCOCCNC(=O)CCC(=O)NCCCC[C@H](NC(=O)[C@@H](N)[C@@H](C)CC)C(=O)N1CCN(c2ccc3ncn(CC(=O)N[C@@H](CCCNC(=N)N)C(=O)N[C@@H](Cc4c[nH]cn4)C(=O)N[C@@H](Cc4ccc(O)cc4)C(=O)N[C@@H](CC(C)C)C(=O)N[C@@H](CC(N)=O)C(=O)N[C@@H](Cc4c[nH]c5ccccc45)C(=O)N[C@H](C(=O)N[C@H](C(=O)N[C@@H](CCCNC(=N)N)C(=O)N[C@@H](CCC(N)=O)C(=O)N(C)[C@@H](CCCNC(=N)N)C(=O)N[C@@H](Cc4ccc(O)cc4)C(N)=O)[C@@H](C)O)C(C)C)c(=O)c3c2)CC1 [Example 37] | > 5000 | > 5000 | 77.9 | 0.13 | 0.367 | 48 |
| CCCCCCCCCCCCCCCCCCCC(=O)NCCOCCOCCOCCC(=O)NCCCC[C@H](NC(=O)[C@@H](N)[C@@H](C)CC)C(=O)N1CCN(c2ccc3ncn(CC(=O)N[C@@H](CCCNC(=N)N)C(=O)N[C@@H](Cc4c[nH]cn4)C(=O)N[C@@H](Cc4ccc(O)cc4)C(=O)N[C@@H](CC(C)C)C(=O)N[C@@H](CC(N)=O)C(=O)N[C@@H](Cc4c[nH]c5ccccc45)C(=O)N[C@H](C(=O)N[C@H](C(=O)N[C@@H](CCCNC(=N)N)C(=O)N[C@@H](CCC(N)=O)C(=O)N(C)[C@@H](CCCNC(=N)N)C(=O)N[C@@H](Cc4ccc(O)cc4)C(N)=O)[C@@H](C)O)C(C)C)c(=O)c3c2)CC1 [Example 35] | > 5000 | > 5000 | 501 | 0.11 | 1.02 | 65 |
